Where “and” joins values, the source holds several entries; their conditions need not be identical. Identical values can stand only once. Toxic doses and inconclusive results are not listed.
Tested on: P388 leukemia ip, CD2F1 mice, survival T/C
Experiment: NCI In Vivo Anticancer Drug Screen. Data for tumor model P388 Leukemia (intraperitoneal) in CD2F1 (CDF1) mice
Settings: endpoint: median survival time, higher = longer survival
Outline: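 Mice carrying the transplanted tumor received test compound or vehicle. Survival was recorded in each group, and the value is the treated-group measurement divided by that of the vehicle-treated control group.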

[1] = dose: 25.0 mg/kg/injection, schedule: Q01DX005 (ip), vehicle: saline with Tween-80
[2] = dose: 50.0 mg/kg/injection, schedule: Q01DX005 (ip), vehicle: saline with Tween-80
[3] = dose: 50.0 mg/kg/injection, schedule: Q01DX009 (ip), vehicle: saline with Tween-80
[4] = dose: 100.0 mg/kg/injection, schedule: Q01DX009 (ip), vehicle: saline with Tween-80
[5] = dose: 200.0 mg/kg/injection, schedule: Q01DX009 (ip), vehicle: saline with Tween-80
[6] = dose: 100.0 mg/kg/injection, schedule: Q01DX005 (ip), vehicle: saline with Tween-80
[7] = dose: 200.0 mg/kg/injection, schedule: Q01DX005 (ip), vehicle: saline with Tween-80
[8] = dose: 60.0 mg/kg/injection, schedule: Q01DX005 (ip), vehicle: saline with Tween-80
[9] = dose: 120.0 mg/kg/injection, schedule: Q01DX005 (ip), vehicle: saline with Tween-80
[10] = dose: 240.0 mg/kg/injection, schedule: Q01DX005 (ip), vehicle: saline with Tween-80
[11] = dose: 100.0 mg/kg/injection, schedule: Q04DX002 (ip), vehicle: Klucel (hydroxypropylcellulose) (HPC)
[12] = dose: 200.0 mg/kg/injection, schedule: Q04DX002 (ip), vehicle: Klucel (hydroxypropylcellulose) (HPC)
[13] = dose: 400.0 mg/kg/injection, schedule: Q04DX002 (ip), vehicle: Klucel (hydroxypropylcellulose) (HPC)
[14] = dose: 7.5 mg/kg/injection, schedule: Q01DX005 (ip), vehicle: saline with Tween-80
[15] = dose: 15.0 mg/kg/injection, schedule: Q01DX005 (ip), vehicle: saline with Tween-80
[16] = dose: 30.0 mg/kg/injection, schedule: Q01DX005 (ip), vehicle: saline with Tween-80
[17] = dose: 25.0 mg/kg/injection, schedule: Q01DX009 (ip), vehicle: saline
[18] = dose: 50.0 mg/kg/injection, schedule: Q01DX009 (ip), vehicle: saline
[19] = dose: 200.0 mg/kg/injection, schedule: Q01DX009 (ip), vehicle: saline
[20] = dose: 25.0 mg/kg/injection, schedule: Q01DX009 (ip), vehicle: saline with Tween-80
[21] = dose: 25.0 mg/kg/injection, schedule: Q01DX009 (ip), vehicle: Klucel (hydroxypropylcellulose) (HPC)
[22] = dose: 50.0 mg/kg/injection, schedule: Q01DX009 (ip), vehicle: Klucel (hydroxypropylcellulose) (HPC)
[23] = dose: 100.0 mg/kg/injection, schedule: Q01DX009 (ip), vehicle: Klucel (hydroxypropylcellulose) (HPC)
[24] = dose: 200.0 mg/kg/injection, schedule: Q01DX009 (ip), vehicle: Klucel (hydroxypropylcellulose) (HPC)

CCOC(=O)C1C(=O)C(CN(CCCl)CCCl)C(=O)C(C(=O)OCC)C1c1ccc(O)cc1 (stereo not given)
T/C (dose: 4.6 micrograms/kg/injection, schedule: Q01DX009 (ip), vehicle: Klucel (hydroxypropylcellulose) (HPC)): 104 % of control
T/C (dose: 9.0 micrograms/kg/injection, schedule: Q01DX009 (ip), vehicle: Klucel (hydroxypropylcellulose) (HPC)): 109 % of control
T/C (dose: 18.7 micrograms/kg/injection, schedule: Q01DX009 (ip), vehicle: Klucel (hydroxypropylcellulose) (HPC)): 109 % of control
T/C (dose: 37.5 micrograms/kg/injection, schedule: Q01DX009 (ip), vehicle: Klucel (hydroxypropylcellulose) (HPC)): 116 % of control

CN(C)CCN(C)CC(C)(C)C(=O)/C=C/c1ccccc1
T/C (dose: 60.0 mg/kg/injection, schedule: Q01DX005 (ip), vehicle: saline): 106 % of control
T/C (dose: 120.0 mg/kg/injection, schedule: Q01DX005 (ip), vehicle: saline): 107 % of control

Cc1nc(N)nc(N)c1-c1ccc(N)cc1
T/C (dose: 12.5 mg/kg/injection, schedule: Q01DX005 (ip), vehicle: saline with Tween-80): 105 % of control
T/C [1]: 103 % of control
T/C [2]: 98 % of control and 105 % of control

c1ccc(C2OCC3(CO2)COC(c2ccccc2)OC3)cc1 (stereo not given)
T/C [3]: 90 % of control
T/C [4]: 100 % of control
T/C [5]: 90 % of control

Cc1ccc2c(c1)C1(SCCC(=O)N1c1ccc(Cl)cc1)C(=O)N2 (stereo not given)
T/C [2]: 103 % of control
T/C [6]: 95 % of control
T/C [7]: 100 % of control

CC(C)(C)OOC(=O)C1CCCCC1
T/C [8]: 100 % of control
T/C [9]: 103 % of control
T/C [10]: 92 % of control

Cc1cn(O)ccc1=S
T/C [11]: 101 % of control
T/C [12]: 99 % of control
T/C [13]: 101 % of control

CCc1cccc2c(NCCCCCCCCNc3c4ccccc4nc4c(CC)cccc34)c3ccccc3nc12
T/C (dose: 0.63 mg/kg/injection, schedule: Q01DX005 (ip), vehicle: other): 110 % of control
T/C (dose: 1.25 mg/kg/injection, schedule: Q01DX005 (ip), vehicle: other): 110 % of control
T/C (dose: 2.5 mg/kg/injection, schedule: Q01DX005 (ip), vehicle: other): 122 % of control
T/C (dose: 3.75 mg/kg/injection, schedule: Q01DX005 (ip), vehicle: other): 104 % of control
T/C (dose: 5.0 mg/kg/injection, schedule: Q01DX005 (ip), vehicle: other): 113 % of control
T/C (dose: 7.5 mg/kg/injection, schedule: Q01DX005 (ip), vehicle: other): 118 % of control
T/C (dose: 10.0 mg/kg/injection, schedule: Q## X009 (ip), vehicle: lactic acid): 110 % of control

O=C1c2cccnc2-c2ncccc21
T/C [8]: 93 % of control
T/C [9]: 91 % of control

Cc1cc2nc(CC(=O)c3cccnc3)c(=O)[nH]c2cc1C
T/C [14]: 100 % of control
T/C [15]: 94 % of control
T/C [16]: 92 % of control
T/C [10]: 88 % of control

COc1ccc2cc(-c3ccccc3)[s+]cc2c1
T/C (dose: 3.12 mg/kg/injection, schedule: Q01DX009 (ip), vehicle: DMSO): 91 % of control
T/C (dose: 6.25 mg/kg/injection, schedule: Q01DX009 (ip), vehicle: DMSO): 86 % of control
T/C (dose: 12.5 mg/kg/injection, schedule: Q01DX009 (ip), vehicle: DMSO): 89 % of control
T/C (dose: 50.0 mg/kg/injection, schedule: Q01DX009 (ip), vehicle: DMSO): 99 % of control

CCOC(=O)c1[nH]c(C)nc1/N=N/N(C)C
T/C [17]: 119 % of control
T/C [18]: 116 % of control
T/C [19]: 116 % of control

CCCOn1nnc2cc(Cl)ccc21
T/C (dose: 6.25 mg/kg/injection, schedule: Q01DX009 (ip), vehicle: saline with Tween-80): 102 % of control
T/C (dose: 12.5 mg/kg/injection, schedule: Q01DX009 (ip), vehicle: saline with Tween-80): 96 % of control
T/C [20]: 99 % of control

CCOC(=O)CC(CS(=O)CP(=O)(OCC)OCC)C(=O)OCC (stereo not given)
T/C [14]: 91 % of control
T/C [15]: 92 % of control
T/C [16]: 102 % of control
T/C [8]: 102 % of control and 110 % of control

C1N2CN3CN1CN(C2)C3
T/C (dose: 50.0 mg/kg/injection, schedule: Q01DX005 (ip), vehicle: saline): 95 % of control
T/C (dose: 100.0 mg/kg/injection, schedule: Q01DX005 (ip), vehicle: saline): 101 % of control
T/C (dose: 200.0 mg/kg/injection, schedule: Q01DX005 (ip), vehicle: saline): 96 % of control

C=CCCCC/C=C/C=C/C#CC#C/C=C/COC(C)=O
T/C (dose: 12.5 mg/kg/injection, schedule: Q01DX009 (ip), vehicle: Klucel (hydroxypropylcellulose) (HPC)): 100 % of control
T/C [21]: 106 % of control
T/C [22]: 106 % of control
T/C [23]: 106 % of control

O=C1NC(=O)C(=Cc2cc3c(cc2Br)OCO3)C(=O)N1
T/C [21]: 101 % of control
T/C [22]: 101 % of control
T/C [3]: 114 % of control
T/C [23]: 117 % of control
T/C [4]: 110 % of control and 124 % of control
T/C (dose: 166.0 mg/kg/injection, schedule: Q01DX009 (ip), vehicle: saline with Tween-80): 117 % of control
T/C [24]: 113 % of control
T/C [5]: 96 % of control

CN(C(=O)OCc1ccccc1)c1ccc(C(=O)NC(CCC(=O)OCc2ccccc2)C(=O)OCc2ccccc2)cc1 (stereo not given)
T/C [5]: 94 % of control

O=S(=O)(F)c1ccc(C[P+](c2ccccc2)(c2ccccc2)c2ccccc2)cc1Cl
T/C [15]: 111 % of control
T/C [16]: 106 % of control
T/C [8]: 110 % of control and 86 % of control

CCC1(O)CN2CCc3c([nH]c4ccccc34)C(C(=O)OC)(c3cc4c(cc3OC)N(C)C3C(O)(C(=O)OC)C(OC(C)=O)C5(CC)C=CCN6CCC43C65)CC(C2=O)C1O (stereo not given)
T/C (dose: 25.0 mg/kg/injection, schedule: Q01DX001 (ip), vehicle: distilled water + Tween-80): 107 % of control
T/C (dose: 25.0 mg/kg/injection, schedule: Q01DX001 (ip), vehicle: suspension in saline): 104 % of control
T/C (dose: 50.0 mg/kg/injection, schedule: Q01DX001 (ip), vehicle: suspension in saline): 110 % of control
T/C (dose: 100.0 mg/kg/injection, schedule: Q01DX001 (ip), vehicle: suspension in saline): 120 % of control
T/C (dose: 200.0 mg/kg/injection, schedule: Q01DX001 (ip), vehicle: distilled water + Tween-80): 154 % of control

CCOC(=O)C(Cc1ccccc1)C1(C)SCCN1C(=O)OCC (stereo not given)
T/C [1]: 101 % of control
T/C [2]: 105 % of control
T/C [6]: 100 % of control
T/C [7]: 103 % of control

COc1ccc(Cl)c2c(N=Nc3ccccc3[N+](=O)[O-])c(O)[nH]c12
T/C [15]: 103 % of control
T/C [16]: 99 % of control
T/C [8]: 95 % of control
T/C [10]: 87 % of control

COP(=O)(OC)C(O)C1CCCCC1 (stereo not given)
T/C (dose: 12.5 mg/kg/injection, schedule: Q01DX009 (ip), vehicle: saline): 100 % of control
T/C [17]: 116 % of control
T/C [18]: 100 % of control and 106 % of control
T/C [19]: 99 % of control

Nc1c(Cl)c(Cl)nc(C(=O)O)c1Cl
T/C [21]: 101 % of control
T/C [20]: 102 % of control
T/C [22]: 86 % of control
T/C [3]: 100 % of control
T/C [23]: 93 % of control
T/C [4]: 100 % of control
T/C [24]: 93 % of control
T/C [5]: 111 % of control
T/C (dose: 400.0 mg/kg/injection, schedule: Q01DX009 (ip), vehicle: saline with Tween-80): 115 % of control

Cc1cc(=O)n(-c2ccc([N+](=O)[O-])cc2Cl)c(C)c1C(=O)O
T/C [2]: 103 % of control
T/C [6]: 96 % of control
T/C [7]: 106 % of control

S=C(N/N=C\c1nc2ccccc2c2ccccc12)Nc1ccc(Cl)cc1
T/C [11]: 90 % of control
T/C [12]: 96 % of control
T/C [13]: 96 % of control

O=[N+]([O-])c1ccc(/C=C\S(=O)(=O)OCCCl)cc1
T/C (dose: 50.0 mg/kg/injection, schedule: Q01DX005 (ip), vehicle: Klucel (hydroxypropylcellulose) (HPC)): 100 % of control

From PubChem BioAssay AID330 (DTP/NCI, 2004)
